# Laboratory results as given in patent US10167262B2, “Herbicidal substituted 3-arylpyrazoles” (FMC CORPORATION, priority 2014, dated 2019).
# Legend:
# Assay in all cases: Test A pre-/postemergence greenhouse herbicide test, visual injury rating 0-100
# Assay type in all cases: in vivo
# [1] = system: barnyardgrass (Echinochloa crus-galli)
# Description: (§1) Seeds of plant species selected from barnyardgrass (Echinochloa crus-galli), large (Lg) crabgrass (Digitaria sanguinalis), giant foxtail (Setaria faberii), morningglory (Ipomoea spp.), pigweed (Amaranthus retroflexus), velvetleaf (Abutilon theophrasti), wheat (Triticum aestivum), and corn (Zea mays) were planted into a blend of loam soil and sand and treated preemergence with a directed soil spray using test chemicals formulated in a non-phytotoxic solvent mixture which included a surfactant. At the same time these species were also treated with postemergence applications of test chemicals formulated in the same manner. Plants ranged in height from 2 to 10 cm and were in the one- to two-leaf stage for the postemergence treatment. Treated plants and untreated controls were maintained in a greenhouse for approximately 10 days, after which time all treated plants were compared to untreated controls and visually evaluated for injury. Plant response ratings, summarized in Table A, are based on a 0 to 100 scale where 0 is no effect and 100 is complete control. A dash (-) response means no test result.
# [2] = system: corn (Zea mays)
# Description: as §1
# [3] = system: giant foxtail (Setaria faberii)
# Description: as §1
# [4] = system: large (Lg) crabgrass (Digitaria sanguinalis)
# Description: as §1
# [5] = system: morningglory (Ipomoea spp.)
# Description: as §1
# [6] = system: pigweed (Amaranthus retroflexus)
# Description: as §1
# [7] = system: velvetleaf (Abutilon theophrasti)
# Description: as §1
# [8] = system: wheat (Triticum aestivum)
# Description: as §1
compound,measurement,setting,value
O=C(c1ccccc1)c1cn(CC(F)F)nc1-c1cc(Cl)cc(Cl)c1 [Compound 59],"Plant response rating (0 to 100 scale), Barnyardgrass","[1]; Postemergence, 125 g ai/ha",0
same,"Plant response rating (0 to 100 scale), Barnyardgrass","[1]; Postemergence, 500 g ai/ha",0
same,"Barnyardgrass plant response rating (0 = no effect, 100 = complete control)","[1]; Preemergence, 125 g ai/ha",0
same,"Plant response rating (0 to 100 scale), Barnyardgrass","[1]; Preemergence, 500 g ai/ha",0
same,"Plant response rating (0 to 100 scale), Corn","[2]; Postemergence, 125 g ai/ha",0
same,"Plant response rating (0 to 100 scale), Corn","[2]; Postemergence, 500 g ai/ha",0
same,"Corn plant response rating (0 = no effect, 100 = complete control)","[2]; Preemergence, 125 g ai/ha",0
same,"Plant response rating (0 to 100 scale), Corn","[2]; Preemergence, 500 g ai/ha",0
same,"Plant response rating (0 to 100 scale), Foxtail, Giant","[3]; Postemergence, 125 g ai/ha",0
same,"Plant response rating (0 to 100 scale), Foxtail, Giant","[3]; Postemergence, 500 g ai/ha",0
same,"Foxtail, Giant plant response rating (0 = no effect, 100 = complete control)","[3]; Preemergence, 125 g ai/ha",0
same,"Plant response rating (0 to 100 scale), Foxtail, Giant","[3]; Preemergence, 500 g ai/ha",0
same,"Plant response rating (0 to 100 scale), Crabgrass, Large","[4]; Postemergence, 125 g ai/ha",0
same,"Plant response rating (0 to 100 scale), Crabgrass, Large","[4]; Postemergence, 500 g ai/ha",0
same,"Crabgrass, Large plant response rating (0 = no effect, 100 = complete control)","[4]; Preemergence, 125 g ai/ha",0
same,"Plant response rating (0 to 100 scale), Crabgrass, Large","[4]; Preemergence, 500 g ai/ha",0
same,"Plant response rating (0 to 100 scale), Morningglory","[5]; Postemergence, 125 g ai/ha",0
same,"Plant response rating (0 to 100 scale), Morningglory","[5]; Postemergence, 500 g ai/ha",0
same,"Morningglory plant response rating (0 = no effect, 100 = complete control)","[5]; Preemergence, 125 g ai/ha",0
same,"Plant response rating (0 to 100 scale), Morningglory","[5]; Preemergence, 500 g ai/ha",0
same,"Plant response rating (0 to 100 scale), Pigweed","[6]; Postemergence, 125 g ai/ha",60
same,"Plant response rating (0 to 100 scale), Pigweed","[6]; Postemergence, 500 g ai/ha",80
same,"Pigweed plant response rating (0 = no effect, 100 = complete control)","[6]; Preemergence, 125 g ai/ha",0
same,"Plant response rating (0 to 100 scale), Pigweed","[6]; Preemergence, 500 g ai/ha",30
same,"Plant response rating (0 to 100 scale), Velvetleaf","[7]; Postemergence, 125 g ai/ha",50
same,"Plant response rating (0 to 100 scale), Velvetleaf","[7]; Postemergence, 500 g ai/ha",70
same,"Velvetleaf plant response rating (0 = no effect, 100 = complete control)","[7]; Preemergence, 125 g ai/ha",0
same,"Plant response rating (0 to 100 scale), Velvetleaf","[7]; Preemergence, 500 g ai/ha",40
same,"Plant response rating (0 to 100 scale), Wheat","[8]; Postemergence, 125 g ai/ha",0
same,"Plant response rating (0 to 100 scale), Wheat","[8]; Postemergence, 500 g ai/ha",0
same,"Wheat plant response rating (0 = no effect, 100 = complete control)","[8]; Preemergence, 125 g ai/ha",0
Clc1cc(Cl)cc(-c2n[nH]cc2C2(c3ccccc3)SCCCS2)c1 [Compound 63],"Plant response rating (0 to 100 scale), Barnyardgrass","[1]; Postemergence, 125 g ai/ha",0
same,"Plant response rating (0 to 100 scale), Barnyardgrass","[1]; Postemergence, 500 g ai/ha",0
same,"Barnyardgrass plant response rating (0 = no effect, 100 = complete control)","[1]; Preemergence, 125 g ai/ha",0
same,"Plant response rating (0 to 100 scale), Barnyardgrass","[1]; Preemergence, 500 g ai/ha",0
same,"Plant response rating (0 to 100 scale), Corn","[2]; Postemergence, 125 g ai/ha",0
same,"Plant response rating (0 to 100 scale), Corn","[2]; Postemergence, 500 g ai/ha",0
same,"Corn plant response rating (0 = no effect, 100 = complete control)","[2]; Preemergence, 125 g ai/ha",0
same,"Plant response rating (0 to 100 scale), Corn","[2]; Preemergence, 500 g ai/ha",0
same,"Plant response rating (0 to 100 scale), Foxtail, Giant","[3]; Postemergence, 125 g ai/ha",0
same,"Plant response rating (0 to 100 scale), Foxtail, Giant","[3]; Postemergence, 500 g ai/ha",0
same,"Foxtail, Giant plant response rating (0 = no effect, 100 = complete control)","[3]; Preemergence, 125 g ai/ha",0
same,"Plant response rating (0 to 100 scale), Foxtail, Giant","[3]; Preemergence, 500 g ai/ha",0
same,"Plant response rating (0 to 100 scale), Crabgrass, Large","[4]; Postemergence, 125 g ai/ha",0
same,"Plant response rating (0 to 100 scale), Crabgrass, Large","[4]; Postemergence, 500 g ai/ha",0
same,"Crabgrass, Large plant response rating (0 = no effect, 100 = complete control)","[4]; Preemergence, 125 g ai/ha",0
same,"Plant response rating (0 to 100 scale), Crabgrass, Large","[4]; Preemergence, 500 g ai/ha",0
same,"Plant response rating (0 to 100 scale), Morningglory","[5]; Postemergence, 125 g ai/ha",0
same,"Plant response rating (0 to 100 scale), Morningglory","[5]; Postemergence, 500 g ai/ha",0
same,"Morningglory plant response rating (0 = no effect, 100 = complete control)","[5]; Preemergence, 125 g ai/ha",0
same,"Plant response rating (0 to 100 scale), Morningglory","[5]; Preemergence, 500 g ai/ha",0
same,"Plant response rating (0 to 100 scale), Pigweed","[6]; Postemergence, 125 g ai/ha",20
same,"Plant response rating (0 to 100 scale), Pigweed","[6]; Postemergence, 500 g ai/ha",80
same,"Pigweed plant response rating (0 = no effect, 100 = complete control)","[6]; Preemergence, 125 g ai/ha",0
same,"Plant response rating (0 to 100 scale), Pigweed","[6]; Preemergence, 500 g ai/ha",60
same,"Plant response rating (0 to 100 scale), Velvetleaf","[7]; Postemergence, 125 g ai/ha",10
same,"Plant response rating (0 to 100 scale), Velvetleaf","[7]; Postemergence, 500 g ai/ha",60
same,"Velvetleaf plant response rating (0 = no effect, 100 = complete control)","[7]; Preemergence, 125 g ai/ha",0
same,"Plant response rating (0 to 100 scale), Velvetleaf","[7]; Preemergence, 500 g ai/ha",0
same,"Plant response rating (0 to 100 scale), Wheat","[8]; Postemergence, 125 g ai/ha",0
same,"Plant response rating (0 to 100 scale), Wheat","[8]; Postemergence, 500 g ai/ha",0
same,"Wheat plant response rating (0 = no effect, 100 = complete control)","[8]; Preemergence, 125 g ai/ha",0
CON=C(c1ccccc1)c1c[nH]nc1-c1cc(Cl)cc(Cl)c1 [Compound 64],"Plant response rating (0 to 100 scale), Barnyardgrass","[1]; Postemergence, 1000 g ai/ha",0
same,"Plant response rating (0 to 100 scale), Barnyardgrass","[1]; Preemergence, 1000 g ai/ha",0
same,"Plant response rating (0 to 100 scale), Corn","[2]; Postemergence, 1000 g ai/ha",0
same,"Plant response rating (0 to 100 scale), Corn","[2]; Preemergence, 1000 g ai/ha",0
same,"Plant response rating (0 to 100 scale), Foxtail, Giant","[3]; Postemergence, 1000 g ai/ha",0
same,"Plant response rating (0 to 100 scale), Foxtail, Giant","[3]; Preemergence, 1000 g ai/ha",0
same,"Plant response rating (0 to 100 scale), Crabgrass, Large","[4]; Postemergence, 1000 g ai/ha",0
same,"Plant response rating (0 to 100 scale), Crabgrass, Large","[4]; Preemergence, 1000 g ai/ha",0
same,"Plant response rating (0 to 100 scale), Morningglory","[5]; Postemergence, 1000 g ai/ha",0
same,"Plant response rating (0 to 100 scale), Morningglory","[5]; Preemergence, 1000 g ai/ha",0
same,"Plant response rating (0 to 100 scale), Pigweed","[6]; Postemergence, 1000 g ai/ha",80
same,"Plant response rating (0 to 100 scale), Pigweed","[6]; Preemergence, 1000 g ai/ha",0
same,"Plant response rating (0 to 100 scale), Velvetleaf","[7]; Postemergence, 1000 g ai/ha",80
same,"Plant response rating (0 to 100 scale), Velvetleaf","[7]; Preemergence, 1000 g ai/ha",0
same,"Plant response rating (0 to 100 scale), Wheat","[8]; Postemergence, 1000 g ai/ha",0
same,"Plant response rating (0 to 100 scale), Wheat","[8]; Preemergence, 1000 g ai/ha",0
N=C(c1ccccc1)c1c[nH]nc1-c1cc(Cl)cc(Cl)c1 [Compound 68],"Plant response rating (0 to 100 scale), Barnyardgrass","[1]; Postemergence, 1000 g ai/ha",0
same,"Plant response rating (0 to 100 scale), Barnyardgrass","[1]; Preemergence, 1000 g ai/ha",0
same,"Plant response rating (0 to 100 scale), Corn","[2]; Postemergence, 1000 g ai/ha",0
same,"Plant response rating (0 to 100 scale), Corn","[2]; Preemergence, 1000 g ai/ha",0
same,"Plant response rating (0 to 100 scale), Foxtail, Giant","[3]; Postemergence, 1000 g ai/ha",0
same,"Plant response rating (0 to 100 scale), Foxtail, Giant","[3]; Preemergence, 1000 g ai/ha",0
same,"Plant response rating (0 to 100 scale), Crabgrass, Large","[4]; Postemergence, 1000 g ai/ha",0
same,"Plant response rating (0 to 100 scale), Crabgrass, Large","[4]; Preemergence, 1000 g ai/ha",0
same,"Plant response rating (0 to 100 scale), Morningglory","[5]; Postemergence, 1000 g ai/ha",0
same,"Plant response rating (0 to 100 scale), Morningglory","[5]; Preemergence, 1000 g ai/ha",0
same,"Plant response rating (0 to 100 scale), Pigweed","[6]; Postemergence, 1000 g ai/ha",100
same,"Plant response rating (0 to 100 scale), Pigweed","[6]; Preemergence, 1000 g ai/ha",100
same,"Plant response rating (0 to 100 scale), Velvetleaf","[7]; Postemergence, 1000 g ai/ha",90
same,"Plant response rating (0 to 100 scale), Velvetleaf","[7]; Preemergence, 1000 g ai/ha",100
same,"Plant response rating (0 to 100 scale), Wheat","[8]; Postemergence, 1000 g ai/ha",0
same,"Plant response rating (0 to 100 scale), Wheat","[8]; Preemergence, 1000 g ai/ha",0
